Data taken from paper PMC5218480 (PLoS ONE, 2017).

Test system: MV-4-11 cells
Assay: Gene expression microarray analysis (Affymetrix PrimeView) and GSEA
Type: cell-based, human
Parameters: RFU PODN (11730768_x_at) / Fold change /veh PODN (11730768_x_at) / RFU LINC00158 (11744669_a_at) / Fold change /veh LINC00158 (11744669_a_at) / RFU DUSP10 (11751237_a_at) / Fold change /veh DUSP10 (11751237_a_at) / RFU ID3 (11757404_x_at) / Fold change /veh ID3 (11757404_x_at) / RFU PLEKHG5 (11737974_s_at) / Fold change /veh PLEKHG5 (11737974_s_at) / RFU LRRC4B (11730491_at) / Fold change /veh LRRC4B (11730491_at) / RFU GIMAP4 (11747438_a_at) / Fold change /veh GIMAP4 (11747438_a_at) / RFU KRT8 (11758183_x_at) / Fold change /veh KRT8 (11758183_x_at) / RFU CNN1 (11734310_a_at) / Fold change /veh CNN1 (11734310_a_at) / RFU VPS37D (11726825_at) / Fold change /veh VPS37D (11726825_at) / RFU C10orf10 (11716522_x_at) / Fold change /veh C10orf10 (11716522_x_at) / RFU KIR2DL2 /// KIR2DL4 /// KIR2DL5A /// KIR2DL5B /// KIR2DS1 /// KIR2DS2 /// KIR2DS3 /// KIR2DS4 /// KIR3DL3 /// KIR3DL3 /// KIR3DS1 (11738374_at) / Fold change /veh KIR2DL2 /// KIR2DL4 /// KIR2DL5A /// KIR2DL5B /// KIR2DS1 /// KIR2DS2 /// KIR2DS3 /// KIR2DS4 /// KIR3DL3 /// KIR3DL3 /// KIR3DS1 (11738374_at) / RFU C1QL1 (11718748_at) / Fold change /veh C1QL1 (11718748_at) / RFU TMPRSS4 (11747572_a_at) / Fold change /veh TMPRSS4 (11747572_a_at) / RFU HAMP (11756126_x_at) / Fold change /veh HAMP (11756126_x_at) / RFU RNFT2 (11725882_a_at) / Fold change /veh RNFT2 (11725882_a_at) / RFU NR4A2 (11747474_a_at) / Fold change /veh NR4A2 (11747474_a_at) / RFU ABCC12 (11746883_a_at) / Fold change /veh ABCC12 (11746883_a_at) / RFU TMEM136 (11760407_x_at) / Fold change /veh TMEM136 (11760407_x_at) / RFU CLDN22 /// WWC2 (11732394_at) / Fold change /veh CLDN22 /// WWC2 (11732394_at) / RFU HLA-DPB1 (11760878_x_at) / Fold change /veh HLA-DPB1 (11760878_x_at) / RFU SPINT1 (11716480_a_at) / Fold change /veh SPINT1 (11716480_a_at) / RFU GAP43 (11754022_s_at) / Fold change /veh GAP43 (11754022_s_at) / RFU A4GNT (11735810_at) / Fold change /veh A4GNT (11735810_at) / RFU PRB3 (11715151_x_at) / Fold change /veh PRB3 (11715151_x_at) / RFU TUBB4B (11761932_at) / Fold change /veh TUBB4B (11761932_at) / RFU CAPN14 (11732068_a_at) / Fold change /veh CAPN14 (11732068_a_at) / RFU TMCC2 (11721928_a_at) / Fold change /veh TMCC2 (11721928_a_at) / RFU IRGQ (11745062_a_at) / Fold change /veh IRGQ (11745062_a_at) / RFU FAM174B (11720279_a_at) / Fold change /veh FAM174B (11720279_a_at) / RFU TMPRSS4 (11748680_a_at) / Fold change /veh TMPRSS4 (11748680_a_at) / RFU FAM212B (11763350_a_at) / Fold change /veh FAM212B (11763350_a_at) / RFU PLEKHG5 (11743358_a_at) / Fold change /veh PLEKHG5 (11743358_a_at) / RFU ZSCAN30 (11745921_a_at) / Fold change /veh ZSCAN30 (11745921_a_at) / RFU CMKLR1 (11741424_a_at) / Fold change /veh CMKLR1 (11741424_a_at) / RFU LOC101060620 /// MAPK8IP1 (11723275_at) / Fold change /veh LOC101060620 /// MAPK8IP1 (11723275_at) / RFU SPTSSB (11747773_x_at) / Fold change /veh SPTSSB (11747773_x_at) / RFU PRSS12 (11739890_at) / Fold change /veh PRSS12 (11739890_at) / RFU BIN1 (11741810_x_at) / Fold change /veh BIN1 (11741810_x_at) / RFU WNT11 (11732464_a_at) / Fold change /veh WNT11 (11732464_a_at) / RFU C10orf10 (11716521_a_at) / Fold change /veh C10orf10 (11716521_a_at) / RFU C5orf56 (11738089_at) / Fold change /veh C5orf56 (11738089_at) / RFU CYB561 (11721691_x_at) / Fold change /veh CYB561 (11721691_x_at) / RFU ANKRD19P (11752326_a_at) / Fold change /veh ANKRD19P (11752326_a_at) / RFU OR2T12 /// OR2T33 /// OR2T8 (11738714_s_at) / Fold change /veh OR2T12 /// OR2T33 /// OR2T8 (11738714_s_at) / RFU VCAN (11748164_a_at) / Fold change /veh VCAN (11748164_a_at) / RFU JSRP1 (11732532_at) / Fold change /veh JSRP1 (11732532_at) / RFU KRTAP10-11 (11738290_x_at) / Fold change /veh KRTAP10-11 (11738290_x_at) / RFU MYO3A (11730013_a_at) / Fold change /veh MYO3A (11730013_a_at) / RFU EBF3 (11725865_a_at) / Fold change /veh EBF3 (11725865_a_at) / RFU CAMK2N1 (11719241_x_at) / Fold change /veh CAMK2N1 (11719241_x_at) / RFU C5orf56 (11738088_a_at) / Fold change /veh C5orf56 (11738088_a_at) / RFU OLFML3 (11715873_a_at) / Fold change /veh OLFML3 (11715873_a_at) / RFU LOC100653217 /// NTM (11731650_a_at) / Fold change /veh LOC100653217 /// NTM (11731650_a_at) / RFU MAPK11 (11762145_a_at) / Fold change /veh MAPK11 (11762145_a_at) / RFU FIZ1 (11724087_x_at) / Fold change /veh FIZ1 (11724087_x_at) / RFU OASL (11726364_x_at) / Fold change /veh OASL (11726364_x_at) / RFU SOX15 (11748057_x_at) / Fold change /veh SOX15 (11748057_x_at) / RFU CD79A (11719716_a_at) / Fold change /veh CD79A (11719716_a_at) / RFU HIST1H1D (11736915_at) / Fold change /veh HIST1H1D (11736915_at) / RFU CASKIN2 (11723855_a_at) / Fold change /veh CASKIN2 (11723855_a_at) / RFU LOC730098 (11760151_x_at) / Fold change /veh LOC730098 (11760151_x_at) / RFU OR4N2 (11742367_at) / Fold change /veh OR4N2 (11742367_at) / RFU PRRT2 (11749266_a_at) / Fold change /veh PRRT2 (11749266_a_at) / RFU SNX32 (11753110_a_at) / Fold change /veh SNX32 (11753110_a_at) / RFU CDHR5 (11726645_a_at) / Fold change /veh CDHR5 (11726645_a_at) / RFU RCAN1 (11760418_a_at) / Fold change /veh RCAN1 (11760418_a_at) / RFU FAM167A (11723789_a_at) / Fold change /veh FAM167A (11723789_a_at) / RFU FAM26E (11764081_at) / Fold change /veh FAM26E (11764081_at) / RFU ISYNA1 (11749810_s_at) / Fold change /veh ISYNA1 (11749810_s_at) / RFU ACY1 (11761880_at) / Fold change /veh ACY1 (11761880_at) / RFU 11764098_at / Fold change /veh 11764098_at / RFU SAMD14 (11745864_x_at) / Fold change /veh SAMD14 (11745864_x_at) / RFU NPB (11741838_a_at) / Fold change /veh NPB (11741838_a_at) / RFU TMPRSS6 (11731388_a_at) / Fold change /veh TMPRSS6 (11731388_a_at) / RFU KRTAP10-2 (11738614_at) / Fold change /veh KRTAP10-2 (11738614_at) / RFU ARHGAP8 /// PRR5-ARHGAP8 (11727945_x_at) / Fold change /veh ARHGAP8 /// PRR5-ARHGAP8 (11727945_x_at) / RFU KRTAP5-7 /// NADSYN1 (11734609_at) / Fold change /veh KRTAP5-7 /// NADSYN1 (11734609_at) / RFU RASL12 (11751679_a_at) / Fold change /veh RASL12 (11751679_a_at) / RFU CDKN2B (11736163_a_at) / Fold change /veh CDKN2B (11736163_a_at) / RFU PRF1 (11729649_at) / Fold change /veh PRF1 (11729649_at) / RFU, ZNF638 /// ZNF638-IT1 / Fold change vs veh, ZNF638 /// ZNF638-IT1 / RFU, PANK3 / Fold change vs veh, PANK3 / RFU, SH3YL1 / Fold change vs veh, SH3YL1 / RFU, ZEB2 / Fold change vs veh, ZEB2 / RFU, NRIP1 / Fold change vs veh, NRIP1 / RFU, PTTG1IP / Fold change vs veh, PTTG1IP / RFU, CAPN2 / Fold change vs veh, CAPN2 / RFU, MED14 / Fold change vs veh, MED14 / RFU, SNORA58 / Fold change vs veh, SNORA58 / RFU, C1orf63 / Fold change vs veh, C1orf63 / RFU, LRRFIP1 / Fold change vs veh, LRRFIP1 / RFU, NDUFAF7 / Fold change vs veh, NDUFAF7 / RFU, SLC12A2 / Fold change vs veh, SLC12A2 / RFU, IBTK / Fold change vs veh, IBTK / RFU, ESF1 / Fold change vs veh, ESF1 / Fold change vs veh, TMEM50B / RFU, TAOK1 / Fold change vs veh, TAOK1 / RFU, ACBD3 / Fold change vs veh, ACBD3 / RFU, TMA16 / Fold change vs veh, TMA16 / RFU, RWDD3 / Fold change vs veh, RWDD3 / RFU, BCAT1 / Fold change vs veh, BCAT1 / RFU, EDEM3 / Fold change vs veh, EDEM3 / RFU, TMEM33 / Fold change vs veh, TMEM33 / RFU, WDR75 / Fold change vs veh, WDR75 / RFU, AHCTF1 / Fold change vs veh, AHCTF1 / RFU, TFRC / Fold change vs veh, TFRC / RFU, ZDHHC17 / Fold change vs veh, ZDHHC17 / RFU, NOM1 / Fold change vs veh, NOM1 / RFU, ARL8B / Fold change vs veh, ARL8B / RFU, ZBTB11 / Fold change vs veh, ZBTB11 / RFU, TAMM41 / Fold change vs veh, TAMM41 / RFU, KIAA1704 /// LOC100996395 / Fold change vs veh, KIAA1704 /// LOC100996395 / RFU, ING1 / Fold change vs veh, ING1 / RFU, TRMT61B / Fold change vs veh, TRMT61B / RFU, FUBP3 / Fold change vs veh, FUBP3 / RFU, TP53 / Fold change vs veh, TP53 / RFU, TNKS2 / Fold change vs veh, TNKS2 / RFU, ZFP14 / Fold change vs veh, ZFP14 / RFU, ACTR2 / Fold change vs veh, ACTR2 / RFU, PPP3R1 / Fold change vs veh, PPP3R1 / RFU, PIK3R1 / Fold change vs veh, PIK3R1 / RFU, HNRNPA1 / Fold change vs veh, HNRNPA1 / RFU, RNF170 / Fold change vs veh, RNF170 / RFU, ZNF28 / Fold change vs veh, ZNF28 / RFU, RNGTT / Fold change vs veh, RNGTT / RFU, OGT / Fold change vs veh, OGT / RFU, BRD1 / Fold change vs veh, BRD1 / RFU, MARS / Fold change vs veh, MARS / RFU, ZNF655 / Fold change vs veh, ZNF655 / RFU, FAHD1 / Fold change vs veh, FAHD1 / RFU, BDP1 / Fold change vs veh, BDP1 / RFU, LRRCC1 / Fold change vs veh, LRRCC1 / RFU, ARID1A / Fold change vs veh, ARID1A / RFU, ZNF146 / Fold change vs veh, ZNF146 / RFU, ZNF330 / Fold change vs veh, ZNF330 / RFU, GPN3 / Fold change vs veh, GPN3 / RFU, C9orf123 / Fold change vs veh, C9orf123 / RFU, N4BP2L2 / Fold change vs veh, N4BP2L2 / RFU, ARFIP1 / Fold change vs veh, ARFIP1 / RFU, FAM179B / Fold change vs veh, FAM179B / RFU, BCL10 / Fold change vs veh, BCL10 / RFU, UHRF1BP1L / Fold change vs veh, UHRF1BP1L / RFU, BET1 / Fold change vs veh, BET1 / RFU, CNOT2 / Fold change vs veh, CNOT2 / RFU, ZNF268 / Fold change vs veh, ZNF268 / Fold change vs veh, ZNF507 / RFU, DGCR2 / Fold change vs veh, DGCR2 / RFU, WDSUB1 / Fold change vs veh, WDSUB1 / Fold change vs veh, HSP90B1 /// MIR3652 / RFU, ADSS / Fold change vs veh, ADSS / RFU, GK / Fold change vs veh, GK / RFU, ZNF148 / Fold change vs veh, ZNF148 / RFU, TAF9 / Fold change vs veh, TAF9 / RFU, SLC1A5 / Fold change vs veh, SLC1A5 / RFU, SLMO2 / Fold change vs veh, SLMO2 / RFU, ABCC4 / Fold change vs veh, ABCC4 / RFU, LOC101060439 /// RAP1B / Fold change vs veh, LOC101060439 /// RAP1B / RFU, RFX7 / Fold change vs veh, RFX7 / RFU, GTPBP10 / Fold change vs veh, GTPBP10 / RFU, CNEP1R1 / Fold change vs veh, CNEP1R1 / RFU, BIVM-ERCC5 /// ERCC5 / Fold change vs veh, BIVM-ERCC5 /// ERCC5 / RFU, ILF3 / Fold change vs veh, ILF3 / RFU 11762660_at / Fold change /veh 11762660_at / RFU VCAN (11757783_s_at) / Fold change /veh VCAN (11757783_s_at) / RFU DDX43 (11728927_at) / Fold change /veh DDX43 (11728927_at) / RFU KRT8 (11758188_x_at) / Fold change /veh KRT8 (11758188_x_at) / RFU NKD1 (11759106_at) / Fold change /veh NKD1 (11759106_at) / RFU SRD5A1 (11742802_a_at) / Fold change /veh SRD5A1 (11742802_a_at) / RFU TPSAB1 /// TPSB2 (11721975_s_at) / Fold change /veh TPSAB1 /// TPSB2 (11721975_s_at) / RFU GSTM3 (11746129_a_at) / Fold change /veh GSTM3 (11746129_a_at) / RFU IL23R (11737362_x_at) / Fold change /veh IL23R (11737362_x_at) / RFU TMEM51 (11727254_a_at) / Fold change /veh TMEM51 (11727254_a_at) / RFU PIWIL2 (11732686_x_at) / Fold change /veh PIWIL2 (11732686_x_at) / RFU ORM1 (11744905_x_at) / Fold change /veh ORM1 (11744905_x_at) / RFU CCDC152 (11743942_at) / Fold change /veh CCDC152 (11743942_at) / RFU ECM1 (11717891_a_at) / Fold change /veh ECM1 (11717891_a_at) / RFU IL23R (11748794_a_at) / Fold change /veh IL23R (11748794_a_at) / RFU TNFAIP8L3 (11732012_x_at) / Fold change /veh TNFAIP8L3 (11732012_x_at) / RFU MBOAT4 (11741988_at) / Fold change /veh MBOAT4 (11741988_at) / RFU 11764193_at / Fold change /veh 11764193_at / RFU TMEM53 (11763286_at) / Fold change /veh TMEM53 (11763286_at) / RFU MAGEB2 (11727129_at) / Fold change /veh MAGEB2 (11727129_at) / RFU TMEM200A (11744735_a_at) / Fold change /veh TMEM200A (11744735_a_at) / RFU CCDC152 (11751479_a_at) / Fold change /veh CCDC152 (11751479_a_at) / RFU FAM211A (11726209_a_at) / Fold change /veh FAM211A (11726209_a_at) / RFU RGS16 (11746705_a_at) / Fold change /veh RGS16 (11746705_a_at) / RFU VCAN (11755009_s_at) / Fold change /veh VCAN (11755009_s_at) / RFU RHOB (11743442_s_at) / Fold change /veh RHOB (11743442_s_at) / RFU RGS16 (11720943_a_at) / Fold change /veh RGS16 (11720943_a_at) / RFU RGS16 (11720944_at) / Fold change /veh RGS16 (11720944_at) / RFU, VPS4B / Fold change vs veh, VPS4B / RFU, CREB1 / Fold change vs veh, CREB1 / RFU, DNAJC13 / Fold change vs veh, DNAJC13 / RFU, GNAQ / Fold change vs veh, GNAQ / RFU, CDK5R1 / Fold change vs veh, CDK5R1 / RFU, ZRANB3 / Fold change vs veh, ZRANB3 / RFU, CUL4A / Fold change vs veh, CUL4A / RFU, CCNY / Fold change vs veh, CCNY / RFU, UFL1 / Fold change vs veh, UFL1 / RFU, COG3 / Fold change vs veh, COG3 / RFU, DIAPH2 / Fold change vs veh, DIAPH2 / RFU, SKA2 / Fold change vs veh, SKA2 / RFU, AFF3 / Fold change vs veh, AFF3 / RFU, LMF1 / Fold change vs veh, LMF1 / RFU, IPO11 / Fold change vs veh, IPO11 / RFU, DFFB / Fold change vs veh, DFFB / RFU, FOXP1 / Fold change vs veh, FOXP1 / RFU, CARD8 / Fold change vs veh, CARD8 / RFU, STRN3 / Fold change vs veh, STRN3 / RFU, ADK / Fold change vs veh, ADK / RFU, RASSF2 / Fold change vs veh, RASSF2 / RFU, WIPF1 / Fold change vs veh, WIPF1 / RFU, LARP1B / Fold change vs veh, LARP1B / RFU, RASA1 / Fold change vs veh, RASA1 / RFU, RB1 / Fold change vs veh, RB1 / RFU, PPFIA1 / Fold change vs veh, PPFIA1 / RFU, MAT2A / Fold change vs veh, MAT2A / RFU, CCT5 / Fold change vs veh, CCT5 / RFU, WDR92 / Fold change vs veh, WDR92 / RFU, CUX1 / Fold change vs veh, CUX1 / RFU, TTC7A / Fold change vs veh, TTC7A / RFU, TMEM135 / Fold change vs veh, TMEM135 / RFU, DEPTOR / Fold change vs veh, DEPTOR / RFU, CPM / Fold change vs veh, CPM / RFU, DNAJB6 / Fold change vs veh, DNAJB6 / RFU, CACNA2D3 / Fold change vs veh, CACNA2D3 / RFU, DTX4 / Fold change vs veh, DTX4 / RFU, TFCP2 / Fold change vs veh, TFCP2 / RFU, GMCL1 /// GMCL1P1 / Fold change vs veh, GMCL1 /// GMCL1P1 / RFU, AEBP2 / Fold change vs veh, AEBP2 / RFU, SNHG1 /// SNORD22 /// SNORD25 /// SNORD26 /// SNORD27 /// SNORD28 /// SNORD29 /// SNORD31 / Fold change vs veh, SNHG1 /// SNORD22 /// SNORD25 /// SNORD26 /// SNORD27 /// SNORD28 /// SNORD29 /// SNORD31 / Fold change (Aza/veh), C12orf56 (ProbeSet 11735607_a_at) / Fold change (ACY-1035/veh), C12orf56 (ProbeSet 11735607_a_at) / Fold change (Aza/veh), FGFR1OP (ProbeSet 11751329_s_at) / Fold change (ACY-1035/veh), FGFR1OP (ProbeSet 11751329_s_at) / Fold change (Aza/veh), VPS36 (ProbeSet 11739960_a_at) / Fold change (ACY-1035/veh), VPS36 (ProbeSet 11739960_a_at) / RFU SYPL1 (11715823_x_at) / Fold change /veh SYPL1 (11715823_x_at) / RFU IGFBP7 (11715501_s_at) / Fold change /veh IGFBP7 (11715501_s_at) / RFU REEP3 (11722064_at) / Fold change /veh REEP3 (11722064_at) / RFU IGLL1 (11728026_x_at) / Fold change /veh IGLL1 (11728026_x_at): dose or concentration left out as unconfirmed
Conditions: ProbeSet 11725885_a_at; LIST B

## Nc1ncn([C@@H]2O[C@H](CO)[C@@H](O)[C@H]2O)c(=O)n1 [azacitidine]
  RFU, CNEP1R1: 65.19 RFU
